Experimental data: patent EP0465716A1, “Optically active thiazetoquino-line-3-carboxylic acid compound, method for preparation thereof, and a pharmaceutical composition comprising the same” (priority 1990, dated 1992)
In brackets after ≈: the same amount, converted by molar mass. Counter-ions that a name gives are not always drawn. Like-named read-outs stand apart in the source and are kept apart here. Each block holds one molecule with its values, some of them ahead of it.

Legend:
[1] = tested on: Klebsiella pneumoniae PCI-602; assay: MIC, twofold agar dilution method (standard laboratory strain); type: cell-based
Experimental: (§1) Minimum inhibitory concentrations (MIC) of test compounds were determined by the twofold agar dilution method (Chemotherapy, 29(1), 76(1981)). Overnight cultures in Mueller-Hinton broth were suspended by buffered saline gelatin. One loopful of the bacterial suspension (10⁶ or 10⁸ colony-forming units/ml) was incubated onto the plates containing test compounds. The plates were incubated for 18 hrs at 37 °C. The MIC was defined by the lowest concentration of the drug that inhibited visible growth of bacteria.

[2] = tested on: Staphylococcuss aureus HPC 292; assay: MIC, twofold agar dilution method (clinically isolated strain); type: cell-based; details: Staphylococcuss aureus HPC 292, Gram +; 10^6 cfu/ml; 18 hrs at 37 °C
Experimental: as §1, with “Overnight” for “Minimum inhibitory concentrations (MIC) of test compounds were determined by the twofold agar dilution method (Chemotherapy, 29(1), 76(1981)). Overnight”

[3] = tested on: Enterobacter cloacae HNR 1946; assay: as above; type: cell-based; details: HNR1946; Enterobacter cloacae HNR 1946, Gram -; 10^6 cfu/ml; 18 hrs at 37 °C
Experimental: as §1, with “Overnight” for “Minimum inhibitory concentrations (MIC) of test compounds were determined by the twofold agar dilution method (Chemotherapy, 29(1), 76(1981)). Overnight”

[4] = tested on: Acinetobacter calcoaceticus HNR 916; assay: as above; type: cell-based; details: HNR916; Acinetobacter calcoaceticus HNR 916, Gram -; 10^6 cfu/ml; 18 hrs at 37 °C
Experimental: as §1, with “Overnight” for “Minimum inhibitory concentrations (MIC) of test compounds were determined by the twofold agar dilution method (Chemotherapy, 29(1), 76(1981)). Overnight”

[5] = tested on: Enterobacter cloacae HNR 1941; assay: as above; type: cell-based; details: HNR1941; Enterobacter cloacae HNR 1941, Gram -; 10^6 cfu/ml; 18 hrs at 37 °C
Experimental: as §1, with “Overnight” for “Minimum inhibitory concentrations (MIC) of test compounds were determined by the twofold agar dilution method (Chemotherapy, 29(1), 76(1981)). Overnight”

[6] = tested on: Enterococcus faecalis HPC 984; assay: as above; type: cell-based; details: HPC984; Enterococcus faecalis HPC 984, Gram +; 10^6 cfu/ml; 18 hrs at 37 °C
Experimental: as §1, with “Overnight” for “Minimum inhibitory concentrations (MIC) of test compounds were determined by the twofold agar dilution method (Chemotherapy, 29(1), 76(1981)). Overnight”

[7] = tested on: Staphylococcuss aureus HPC 308; assay: as above; type: cell-based; details: Staphylococcuss aureus HPC 308, Gram +; 10^6 cfu/ml; 18 hrs at 37 °C
Experimental: as §1, with “Overnight” for “Minimum inhibitory concentrations (MIC) of test compounds were determined by the twofold agar dilution method (Chemotherapy, 29(1), 76(1981)). Overnight”

[8] = tested on: Enterococcus faecalis HPC 975; assay: as above; type: cell-based; details: HPC975; Enterococcus faecalis HPC 975, Gram +; 10^6 cfu/ml; 18 hrs at 37 °C
Experimental: as §1, with “Overnight” for “Minimum inhibitory concentrations (MIC) of test compounds were determined by the twofold agar dilution method (Chemotherapy, 29(1), 76(1981)). Overnight”

[9] = tested on: Klebsiella pneumoniae HNR 828; assay: as above; type: cell-based; details: HNR828; Klebsiella pneumoniae HNR 828, Gram -; 10^6 cfu/ml; 18 hrs at 37 °C
Experimental: as §1, with “Overnight” for “Minimum inhibitory concentrations (MIC) of test compounds were determined by the twofold agar dilution method (Chemotherapy, 29(1), 76(1981)). Overnight”

[10] = tested on: Pseudomonas aeruginosa HNR 1537; assay: as above; type: cell-based; details: HNR1537; Pseudomonas aeruginosa HNR 1537, Gram -; 10^6 cfu/ml; 18 hrs at 37 °C
Experimental: as §1, with “Overnight” for “Minimum inhibitory concentrations (MIC) of test compounds were determined by the twofold agar dilution method (Chemotherapy, 29(1), 76(1981)). Overnight”

[11] = tested on: Serratia marcescens HNR 1544; assay: as above; type: cell-based; details: HNR1544; Serratia marcescens HNR 1544, Gram -; 10^6 cfu/ml; 18 hrs at 37 °C
Experimental: as §1, with “Overnight” for “Minimum inhibitory concentrations (MIC) of test compounds were determined by the twofold agar dilution method (Chemotherapy, 29(1), 76(1981)). Overnight”

[12] = tested on: Enterococcus faecalis HPC 948; assay: as above; type: cell-based; details: HPC948; Enterococcus faecalis HPC 948, Gram +; 10^6 cfu/ml; 18 hrs at 37 °C
Experimental: as §1, with “Overnight” for “Minimum inhibitory concentrations (MIC) of test compounds were determined by the twofold agar dilution method (Chemotherapy, 29(1), 76(1981)). Overnight”

[13] = tested on: Klebsiella pneumoniae HNR 869; assay: as above; type: cell-based; details: HNR869; Klebsiella pneumoniae HNR 869, Gram -; 10^6 cfu/ml; 18 hrs at 37 °C
Experimental: as §1, with “Overnight” for “Minimum inhibitory concentrations (MIC) of test compounds were determined by the twofold agar dilution method (Chemotherapy, 29(1), 76(1981)). Overnight”

[14] = tested on: Staphylococcuss aureus HPC 527; assay: as above; type: cell-based; details: Staphylococcuss aureus HPC 527, Gram +; 10^6 cfu/ml; 18 hrs at 37 °C
Experimental: as §1, with “Overnight” for “Minimum inhibitory concentrations (MIC) of test compounds were determined by the twofold agar dilution method (Chemotherapy, 29(1), 76(1981)). Overnight”

[15] = tested on: Pseudomonas aeruginosa HNR 1489; assay: as above; type: cell-based; details: HNR1489; Pseudomonas aeruginosa HNR 1489, Gram -; 10^6 cfu/ml; 18 hrs at 37 °C
Experimental: as §1, with “Overnight” for “Minimum inhibitory concentrations (MIC) of test compounds were determined by the twofold agar dilution method (Chemotherapy, 29(1), 76(1981)). Overnight”

[16] = tested on: Enterobacter cloacae HNR 1939; assay: as above; type: cell-based; details: HNR1939; Enterobacter cloacae HNR 1939, Gram -; 10^6 cfu/ml; 18 hrs at 37 °C
Experimental: as §1, with “Overnight” for “Minimum inhibitory concentrations (MIC) of test compounds were determined by the twofold agar dilution method (Chemotherapy, 29(1), 76(1981)). Overnight”

[17] = tested on: Acinetobacter calcoaceticus HNR 904; assay: as above; type: cell-based; details: HNR904; Acinetobacter calcoaceticus HNR 904, Gram -; 10^6 cfu/ml; 18 hrs at 37 °C
Experimental: as §1, with “Overnight” for “Minimum inhibitory concentrations (MIC) of test compounds were determined by the twofold agar dilution method (Chemotherapy, 29(1), 76(1981)). Overnight”

[18] = tested on: Serratia marcescens HNR 1767; assay: as above; type: cell-based; details: HNR1767; Serratia marcescens HNR 1767, Gram -; 10^6 cfu/ml; 18 hrs at 37 °C
Experimental: as §1, with “Overnight” for “Minimum inhibitory concentrations (MIC) of test compounds were determined by the twofold agar dilution method (Chemotherapy, 29(1), 76(1981)). Overnight”

[19] = tested on: Pseudomonas aeruginosa HNR 1472; assay: as above; type: cell-based; details: HNR1472; Pseudomonas aeruginosa HNR 1472, Gram -; 10^6 cfu/ml; 18 hrs at 37 °C
Experimental: as §1, with “Overnight” for “Minimum inhibitory concentrations (MIC) of test compounds were determined by the twofold agar dilution method (Chemotherapy, 29(1), 76(1981)). Overnight”

[20] = tested on: Acinetobacter calcoaceticus HNR 939; assay: as above; type: cell-based; details: HNR939; Acinetobacter calcoaceticus HNR 939, Gram -; 10^6 cfu/ml; 18 hrs at 37 °C
Experimental: as §1, with “Overnight” for “Minimum inhibitory concentrations (MIC) of test compounds were determined by the twofold agar dilution method (Chemotherapy, 29(1), 76(1981)). Overnight”

[21] = tested on: Serratia marcescens HNR 1792; assay: as above; type: cell-based; details: HNR1792; Serratia marcescens HNR 1792, Gram -; 10^6 cfu/ml; 18 hrs at 37 °C
Experimental: as §1, with “Overnight” for “Minimum inhibitory concentrations (MIC) of test compounds were determined by the twofold agar dilution method (Chemotherapy, 29(1), 76(1981)). Overnight”

[22] = tested on: Klebsiella pneumoniae HNR 858; assay: as above; type: cell-based; details: HNR858; Klebsiella pneumoniae HNR 858, Gram -; 10^6 cfu/ml; 18 hrs at 37 °C
Experimental: as §1, with “Overnight” for “Minimum inhibitory concentrations (MIC) of test compounds were determined by the twofold agar dilution method (Chemotherapy, 29(1), 76(1981)). Overnight”

[23] = tested on: Staphylococuss aureus FDA 209PJC-1; assay: MIC, twofold agar dilution method (standard laboratory strain); type: cell-based; details: Staphylococuss aureus FDA 209PJC-1, Gram +; 10^6 cfu/ml; 18 hrs at 37 °C
Experimental: as §1, with “Overnight” for “Minimum inhibitory concentrations (MIC) of test compounds were determined by the twofold agar dilution method (Chemotherapy, 29(1), 76(1981)). Overnight”

[24] = tested on: Pseudomonas aeruginosa IFO 3445; assay: as above; type: cell-based; details: IFO3445; Pseudomonas aeruginosa IFO 3445, Gram -; 10^6 cfu/ml; 18 hrs at 37 °C
Experimental: as §1, with “Overnight” for “Minimum inhibitory concentrations (MIC) of test compounds were determined by the twofold agar dilution method (Chemotherapy, 29(1), 76(1981)). Overnight”

[25] = tested on: Escherichia coli NIHJ JC-2; assay: as above; type: cell-based; details: NIHJJC2; Escherichia coli NIHJ JC-2, Gram -; 10^6 cfu/ml; 18 hrs at 37 °C
Experimental: as §1, with “Overnight” for “Minimum inhibitory concentrations (MIC) of test compounds were determined by the twofold agar dilution method (Chemotherapy, 29(1), 76(1981)). Overnight”

Enterobacter cloacae 963 = assay: as above; type: cell-based; details: Enterobacter cloacae 963, Gram -; 10^6 cfu/ml; 18 hrs at 37 °C
Experimental: as §1, with “Overnight” for “Minimum inhibitory concentrations (MIC) of test compounds were determined by the twofold agar dilution method (Chemotherapy, 29(1), 76(1981)). Overnight”

[26] = tested on: Serratia marcescens IAM 1184; assay: as above; type: cell-based; details: IAM1184; Serratia marcescens IAM 1184, Gram -; 10^6 cfu/ml; 18 hrs at 37 °C
Experimental: as §1, with “Overnight” for “Minimum inhibitory concentrations (MIC) of test compounds were determined by the twofold agar dilution method (Chemotherapy, 29(1), 76(1981)). Overnight”

Male mice of ddY strain = assay: Convulsion inducing activity in combination with fenbufen; details: thirty minutes after fenbufen 100 mg/kg orally
Experimental: Male mice of ddY strain, 5 weeks old, were used. Fenbufen suspended in 0.5 % carboxymethylcellulose was administered orally at a dose of 100 mg/kg. After thirty minutes, test compounds suspended in 0.5 % carboxymethylcellulose were injected intraperitoneally (i.p.) at a dose of 100 mg/kg or 300 mg/kg.

MIC ([1]; PCI602, Klebsiella pneumoniae PCI-602, Gram -, 10^6 cfu/ml, 18 hrs at 37 °C, read-out: MIC): 0.012 µg/mL (≈ 0.0327 µM)
MIC [2]: 3.13 µg/mL (≈ 8.52 µM)
MIC [3]: 0.2 µg/mL (≈ 0.544 µM)
MIC [4]: 0.1 µg/mL (≈ 0.272 µM)
MIC [5]: 3.13 µg/mL (≈ 8.52 µM)
MIC [6]: 0.1 µg/mL (≈ 0.272 µM)
MIC [7]: 0.78 µg/mL (≈ 2.12 µM)
MIC [8]: 3.13 µg/mL (≈ 8.52 µM)
MIC [9]: 1.56 µg/mL (≈ 4.25 µM)
MIC [10]: 6.25 µg/mL (≈ 17 µM)
MIC [11]: 0.05 µg/mL (≈ 0.136 µM)
MIC [12]: 0.39 µg/mL (≈ 1.06 µM)
MIC [13]: 0.78 µg/mL (≈ 2.12 µM)
MIC [14]: 0.05 µg/mL (≈ 0.136 µM)
MIC [15]: 0.1 µg/mL (≈ 0.272 µM)
MIC [16]: 0.1 µg/mL (≈ 0.272 µM)
MIC [17]: 25 µg/mL (≈ 68 µM)
MIC [18]: 6.25 µg/mL (≈ 17 µM)
MIC [19]: 6.25 µg/mL (≈ 17 µM)
MIC [20]: 0.78 µg/mL (≈ 2.12 µM)
MIC [21]: 1.56 µg/mL (≈ 4.25 µM)
MIC [22]: 0.2 µg/mL (≈ 0.544 µM)
MIC [23]: 0.05 µg/mL (≈ 0.136 µM)
MIC [24]: 0.1 µg/mL (≈ 0.272 µM)
MIC [25]: 0.025 µg/mL (≈ 0.068 µM)
MIC (Enterobacter cloacae 963): 0.05 µg/mL (≈ 0.136 µM)
MIC [26]: 0.05 µg/mL (≈ 0.136 µM)
SMILES: CC1Sc2c(C(=O)O)c(=O)c3cc(F)c(N4CC[C@@H](N)C4)c(F)c3n21 (single isomer, unassigned) [Example 26]

SMILES: O=C(O)c1cn(C2CC2)c2cc(N3CCNCC3)c(F)cc2c1=O [Ref. Drug A, ciprofloxacin hydrochloride]
MIC ([1]; Klebsiella pneumoniae, PCI602, 18 h): 0.012 µg/mL
Number of convulsion induced / Number of animals (Male mice of ddY strain; 100 mg/kg (i.p.)): 4 / 6
Number of convulsion induced / Number of animals (Male mice of ddY strain; 300 mg/kg (i.p.)): 6 / 6
